pIC50: −log10 of the molar value. Where two headings read alike, the source gives them in different places. Bounds are passed on as bounds.

Data set [1] relates to Human oral epidermoid carcinoma KB cells. The data set is described as follows: Cell growth inhibition assay (methylene blue dye), KB cells. The format is cell-based. Conditions: KB cells. The procedure:
Anticancer activities of the aryl substituted sulfonamide compounds synthesized in the above examples were evaluated by testing their inhibitory effects on mammalian cancer cell growth.
Human oral epidermoid carcinoma KB cells, non small cell lung carcinoma H460 cells, colorectal carcinoma HT29 cells, and stomach carcinoma MKN45 cells were maintained in RPMI-1640 medium supplied with 5% fetal bovine serum. The cells were treated with the test compound at various concentrations for 72 h.

[2] abbreviates: bands, read-out: IC50, inhibiting proliferation of KB cells (band).

In general, melting point refers to the temperature, or range, at which the solid turns liquid. Consider `COc1ccc(S(=O)(=O)n2ccc3ccnc(-c4ccncc4)c32)cc1` [Compound 13, 1-(4-methoxy-benzenesulfonyl)-7-pyridin-4-yl-1H-pyrrolo[2,3-c]pyridine], for which the melting point was 193.1 to 194.3 °C.

For the compound `COc1ccc(S(=O)(=O)N2CCc3cccc(-c4ccc(Cl)cc4)c32)cc1` [Compound 33, 7-(4-chloro-phenyl)-1-(4-methoxy-benzenesulfonyl)-2,3-dihydro-1H-indole], the melting point lay within 177.1 to 178.3 °C. For the same compound, the pIC50 in data set [1] (setting [2]) was 6.15 to 7.00.

The compound `COc1ccc(S(=O)(=O)N2CCc3cccc(-c4ccc(C=CC(=O)NO)cc4)c32)cc1` [Compound 41, N-hydroxy-3-{4-[1-(4-methoxy-benzenesulfonyl)-2,3-dihydro-1H-indol-7-yl]-phenyl}-acrylamide] gave a melting point of 200 to 201 °C.

In the case of `COc1ccc(S(=O)(=O)N2CCc3cccc(-c4ccc(O)cc4)c32)cc1` [Compound 26, 4-[1-(4-methoxy-benzenesulfonyl)-2,3-dihydro-1H-indol-7-yl]-phenol], the melting point fell in the range of 179.4 to 180.5 °C. The pIC50 in data set [1] (setting [2]) was 6.15 to 7.00.

Compound `COc1ccc(S(=O)(=O)N2CCc3cccc(-c4ccco4)c32)cc1` [Compound 29, 7-furan-2-yl-1-(4-methoxy-benzenesulfonyl)-2,3-dihydro-1H-indole] registered a melting point of 176.7 to 177.7 °C. The pIC50 in data set [1] (setting [2]) was 7.00 to 9.00.

Regarding `COc1ccc(S(=O)(=O)N2CCc3cccc(-c4ccc(CN(C)C)cc4)c32)cc1` [Compound 39, {4-[1-(4-methoxy-benzenesulfonyl)-2,3-dihydro-1H-indol-7-yl]-benzyl}-dimethyl-amine], the melting point fell in the range of 165 to 166 °C. Further, the pIC50 in data set [1] (bound stated, read-out: IC50, inhibiting proliferation of KB cells (bound)) was not above 5.40.

Regarding `COc1ccc(-c2cccc3c2N(S(=O)(=O)c2ccc(OC)cc2)CC3)cc1` [Compound 23, 1-(4-methoxy-benzenesulfonyl)-7-(4-methoxy-phenyl)-2,3-dihydro-1H-indole], the melting point is 176.3 to 177.4 °C. In data set [1] (setting [2]), the pIC50 is 6.15 to 7.00.

Consider `COc1ccc(S(=O)(=O)n2ccc3ccnc(-c4ccc(O)cc4)c32)cc1` [Compound 10, 4-[1-(4-methoxy-benzenesulfonyl)-1H-pyrrolo[2,3-c]pyridin-7-yl]-phenol], for which the melting point fell in the range of 179 to 182 °C.

For `COc1ccc(S(=O)(=O)N2CCc3cccc(-c4cccs4)c32)cc1` [Compound 30, 1-(4-methoxy-benzenesulfonyl)-7-thiophen-2-yl-2,3-dihydro-1H-indole], the melting point fell in the range of 127.7 to 129.1 °C. For the same compound, the pIC50 in data set [1] (setting [2]) was 6.15 to 7.00.

As to `COc1ccc(S(=O)(=O)n2ccc3ccnc(-c4cccs4)c32)cc1` [Compound 44, 1-(4-methoxy-benzenesulfonyl)-7-thiophen-2-yl-1H-pyrrolo[2,3-c]pyridine], the melting point was 112.2 to 113.7 °C.

In turn, `COc1ccc(S(=O)(=O)N2CCc3cccc(-c4ccc(N)cc4)c32)cc1` [Compound 20, 4-[1-(4-methoxy-benzenesulfonyl)-2,3-dihydro-1H-indol-7-yl]-phenylamine] came in with a melting point of 183.9 to 185.6 °C. Moreover, the pIC50 in data set [1] (setting [2]) is 6.15 to 7.00.

Consider `COc1ccc(S(=O)(=O)N2CCc3cccc(-c4ccc(C=O)cc4)c32)cc1` [Compound 38, 4-[1-(4-methoxy-benzenesulfonyl)-2,3-dihydro-1H-indol-7-yl]-benzaldehyde], for which the melting point is 152 to 153 °C. Further, in data set [1] (setting [2]), the pIC50 was 7.00 to 9.00.

Consider `COc1ccc(Nc2nccc3ccn(S(=O)(=O)c4ccc(OC)cc4)c23)cc1` [Compound 4, [1-(4-methoxy-benzenesulfonyl)-1H-pyrrolo[2,3-c]pyridin-7-yl]-(4-methoxy-phenyl)-amine], for which the melting point was 155.5 to 158.3 °C.

The compound `COc1ccc(-c2nccc3ccn(S(=O)(=O)c4ccc(OC)cc4)c23)cc1` [Compound 11, 1-(4-methoxy-benzenesulfonyl)-7-(4-methoxy-phenyl)-1H-pyrrolo[2,3-c]pyridine] returned a melting point of 162.8 to 164.8 °C.

Turning to `COc1ccc(S(=O)(=O)N2CCc3cccc(-c4cccnc4)c32)cc1` [Compound 46, 1-(4-methoxy-benzenesulfonyl)-7-pyridin-3-yl-2,3-dihydro-1H-indole], the melting point was 178.8 to 181 °C.

Regarding `COc1ccc(S(=O)(=O)n2ccc3ccnc(-c4ccc(C(F)(F)F)cc4)c32)cc1` [Compound 15, 1-(4-methoxy-benzenesulfonyl)-7-(4-trifluoromethyl-phenyl)-1H-pyrrolo[2,3-c]pyridine], the melting point was in the range of 143.1 to 144.9 °C.

As for `NS(=O)(=O)c1ccc(S(=O)(=O)N2CCc3cccc(-c4ccncc4)c32)cc1` [Compound 43, 4-(7-pyridin-4-yl-2,3-dihydro-indole-1-sulfonyl)-benzenesulfonamide], the melting point was 241.7 to 242.9 °C.

Regarding `COc1ccc(S(=O)(=O)n2ccc3ccnc(-c4ccc(N(C)C)cc4)c32)cc1` [Compound 12, {4-[1-(4-methoxy-benzenesulfonyl)-1H-pyrrolo[2,3-c]pyridin-7-yl]-phenyl}-dimethyl-amine], the melting point fell in the range of 111.5 to 114.5 °C.

For the compound `COc1ccc(S(=O)(=O)N2CCc3cccc(-c4ccc(F)cc4)c32)cc1` [Compound 28, 7-(4-fluoro-phenyl)-1-(4-methoxy-benzenesulfonyl)-2,3-dihydro-1H-indole], the melting point is 178.1 to 179.4 °C. Also, the pIC50 in data set [1] (setting [2]) was 7.00 to 9.00.

Compound `COc1ccc(S(=O)(=O)N2CCc3cccc(-c4ccc(N(C)C)cc4)c32)cc1` [Compound 31, {4-[1-(4-methoxy-benzenesulfonyl)-2,3-dihydro-1H-indol-7-yl]-phenyl}-dimethyl-amine] yielded a melting point of 178.4 to 179.7 °C. Moreover, the pIC50 in data set [1] (setting [2]) is 6.15 to 7.00.

As for `COc1ccc(S(=O)(=O)N2CCc3cccc(-c4ccc([N+](=O)[O-])cc4)c32)cc1` [Compound 37, 1-(4-methoxy-benzenesulfonyl)-7-(4-nitro-phenyl)-2,3-dihydro-1H-indole], the melting point is 177.1 to 178.4 °C. Besides, the pIC50 in data set [1] (setting [2]) was 7.00 to 9.00.

In turn, `COc1ccc(S(=O)(=O)N2CCc3cccc(-c4cc(OC)c(OC)c(OC)c4)c32)cc1` [Compound 32, 1-(4-methoxy-benzenesulfonyl)-7-(3,4,5-trimethoxy-phenyl)-2,3-dihydro-1H-indole] showed a melting point of 202.5 to 204.8 °C.

In turn, `COc1ccc(S(=O)(=O)n2ccc3cccc(-c4ccc(F)cc4)c32)cc1` [Compound 19, 7-(4-fluoro-phenyl)-1-(4-methoxy-benzenesulfonyl)-1H-indole] yielded a melting point of 181.2 to 182.4 °C.

For `COc1ccc(S(=O)(=O)n2ccc3ccnc(Nc4ccccc4)c32)cc1` [Compound 1, [1-(4-methoxy-benzenesulfonyl)-1H-pyrrolo[2,3-c]pyridin-7-yl]-phenyl-amine], the melting point lay within 138.5 to 139.7 °C.

Turning to `COC(=O)c1ccc(-c2nccc3ccn(S(=O)(=O)c4ccc(OC)cc4)c23)cc1` [Compound 7, 4-[1-(4-methoxy-benzenesulfonyl)-1H-pyrrolo[2,3-c]pyridin-7-yl]-benzoic acid methyl ester], the melting point was 143.5 to 146.5 °C.

Turning to `COc1ccc(S(=O)(=O)N2CCc3cccc(-c4cccc(F)c4)c32)cc1` [Compound 35, 7-(3-fluoro-phenyl)-1-(4-methoxy-benzenesulfonyl)-2,3-dihydro-1H-indole], the melting point was 180 to 181.3 °C.

`COc1ccc(S(=O)(=O)n2ccc3ccnc(-c4ccccc4)c32)cc1` [Compound 6, 1-(4-methoxy-benzenesulfonyl)-7-phenyl-1H-pyrrolo[2,3-c]pyridine] gave a melting point of 148.9 to 151 °C.

The compound `COc1ccc(S(=O)(=O)n2ccc3ccnc(-c4ccco4)c32)cc1` [Compound 16, 7-furan-2-yl-1-(4-methoxy-benzenesulfonyl)-1H-pyrrolo[2,3-c]pyridine] showed a melting point of 127.1 to 130.3 °C.

Take `COc1ccc(S(=O)(=O)n2ccc3ccnc(-c4ccc([N+](=O)[O-])cc4)c32)cc1` [Compound 14, 1-(4-methoxy-benzenesulfonyl)-7-(4-nitro-phenyl)-1H-pyrrolo[2,3-c]pyridine]: the melting point was 177.5 to 178.8 °C.

On to `COc1ccc(S(=O)(=O)n2ccc3cccc(-c4ccc(C#N)cc4)c32)cc1` [Compound 18, 4-[1-(4-methoxy-benzenesulfonyl)-1H-indol-7-yl]-benzonitrile], for which the melting point was 164.3 to 165.7 °C.

As to `COc1ccc(S(=O)(=O)n2ccc3ccnc(N(C)C)c32)cc1` [Compound 3, [1-(4-methoxy-benzenesulfonyl)-1H-pyrrolo[2,3-c]pyridin-7-yl]-dimethyl-amine], the melting point was in the range of 154.8 to 157.5 °C.

The compound `COc1ccc(S(=O)(=O)n2ccc3ccnc(Nc4ccc(F)cc4)c32)cc1` [Compound 5, (4-fluoro-phenyl)-[1-(4-methoxy-benzenesulfonyl)-1H-pyrrolo[2,3-c]pyridin-7-yl]-amine] displayed a melting point of 125.1 to 127.1 °C.

Regarding `NS(=O)(=O)c1ccc(S(=O)(=O)N2CCc3cccc(-c4ccc(F)cc4)c32)cc1` [Compound 42, 4-[7-(4-fluoro-phenyl)-2,3-dihydro-indole-1-sulfonyl]-benzenesulfonamide], the melting point fell in the range of 188.7 to 190.2 °C.

In turn, `COc1ccc(S(=O)(=O)n2ccc3ccnc(-c4ccc(F)cc4)c32)cc1` [Compound 8, 7-(4-fluoro-phenyl)-1-(4-methoxy-benzenesulfonyl)-1H-pyrrolo[2,3-c]pyridine] displayed a melting point of 136 to 137 °C.

In the case of `COc1ccc(S(=O)(=O)n2ccc3ccnc(-c4ccc(Cl)cc4)c32)cc1` [Compound 9, 7-(4-chloro-phenyl)-1-(4-methoxy-benzenesulfonyl)-1H-pyrrolo[2,3-c]pyridine], the melting point fell in the range of 125.5 to 128.5 °C.

The values are drawn from patent US8119683B2, “Aryl substituted sulfonamide compounds and their use as anticancer agents” (Taipei Medical University, priority 2009, dated 2012).
